Assay results published in patent publication US9744263B2, “Bone tissue implant comprising strontium ions” (ASTRA TECH AB, priority 2007, dated 2017).

Legend:
Assay type in all cases: cell-based, human
[1] = system: MG-63 cells; assay: MG-63 proliferation on reference surfaces with strontium (NucleoCounter); conditions: 0.5 mM strontium on reference surface 1, 7 days, compared to unstimulated reference surfaces 1 and 2
Description: Sterilized (β-radiation) Ti coins with reference surfaces 1 and 2, respectively were placed in 24 well plates. MG-63 cells were subcultured onto the coins in the 24 well plates at a plating density of 10 000 cells/cm^2, in total 20 000 cells/well. Sterile filtered Sr(NO3)2 at final concentrations of 5 mM and 0.5 mM (pH 5.2) was added to the respective wells. Untreated cells were used as controls. Cells were cultured for 7 days at a temperature of 37° C. in an atmosphere of 5% CO2 and 100% humidity.
The total number of cells in each well (×10^5) after each time period was determined by the NucleoCassette method by the NucleoCounter (ChemoMetec A/S Denmark).
The number of cells was investigated by lysis of the cells in “Reagent A” having a pH of 1.25 following stabilization by “Reagent B”. In the NucleoCassette, propidium iodide was incorporated which targets the amount of released DNA. The cassette was placed in the NucleoCounter and the amount of measured fluorochrome corresponded to the amount of DNA. The instructions from the manufacturer were followed (Chemometec A/S, Denmark).

[2] = system: MG-63 cells; assay: Production of alkaline phosphatase (ALP) by MG-63 cells with Sr(NO3)2 added to the wells
Description: MG-63 is a human cell line (ATCC No CRL-1427, U.S.) conventionally used in the art for in vitro studies of osteoblasts.
In this study, MG-63 cells were obtained from frozen cells in second passage and further cultured in Dulbecco's modified Eagle's medium (DMEM) containing FCS 5%, PEST 1%, Gibco, UK) in 37° C. in an atmosphere of 5% CO2 and 100% humidity. When the cells reached confluence they were subcultured by the use of 0.05% Trypsin-EDTA (Gibco, UK) until the amount of cells were obtained.
In order to study the effect of strontium on the production of alkaline phosphatase (ALP), MG-63 cells prepared in reference example 1 were subcultured into 24 well plates at a plating density of 10 000 cells/cm^2, in total 20 000 cells/well. Sterile filtered Sr(NO3)2 at final concentrations of 10 mM, 5 mM, 3 mM, and 1 mM respectively (pH 5.2) were added to the respective wells of the plate. Untreated cells were used as controls. Cells were cultured for 3, 7 and 14 days at a temperature of 37° C. in an atmosphere of 5% CO2 and 100% humidity.
(§1) At harvest, the cell culture medium was analysed with respect to the ALP content. The intracellular ALP was measured by cell lysis according to the instructions of the manufacturer (SenzoLyte™ pNPP Alkaline Phosphatase Assay Kit Colorimetric BioSite, Sweden). The absorption was set at 405 nm by an automatic plate reader (Vmax, Molecular Device, UK). By comparing the optical density of the samples with the standard provided with the kit, the ALP concentrations could be determined. The instructions from the manufacturer were followed (BioSite, Sweden).

[3] = system: MG-63 cells; assay: ALP production on reference surfaces; conditions: 0.5 mM strontium on reference surface 1, after 7 days of cell culture
Description: as §1
The production of ALP on reference surface 1 comprising a concentration of 0.5 mM strontium was compared with unstimulated reference surfaces 1 and 2.

## O=[N+]([O-])[O-].O=[N+]([O-])[O-].[Sr+2] [strontium, Sr(NO3)2]
[1]
  MG-63 cell proliferation, rank: highest MG-63 cell proliferation
[2]; 3 mM strontium, after 14 days of culturing
  amount of ALP, rank among concentrations: highest amount of ALP
[2]; after 7 days of culture
  production of ALP compared to control: small increase
[2]; after 14 days, especially at Sr concentrations 1 mM and 3 mM
  ALP levels compared to control: remarkably increased
[2]; initially (3 days), all strontium concentrations (1, 3, 5, 10 mM), polystyrene
  production of ALP compared to control (unstimulated cells): initially slow
[3]
  production of ALP compared with unstimulated reference surfaces 1 and 2: increased production of ALP
